Assay results as given in patent publication US6087358A (priority 1997, dated 2000).
In brackets after ≈: the same amount, converted by molar mass. Read-outs that look alike come from different tables or passages of the source.

Experiments:
[1] = system: Mycobacterium tuberculosis; conditions: Ashtekar et al. 1993; cited from earlier work
[2] = system: Clostridium difficile ATCC 17857; assay: In vitro inhibition of Clostridium difficile (Oxyrase broth microdilution MIC); assay type: cell-based; conditions: Clostridioides difficile, ATCC17857; Clostridium difficile ATCC 17857, Oxyrase broth; read-out: MIC, column D, 3(S) compounds
[3] = system: Mycobacterium tuberculosis H37Rv (sensitive strain); assay: MIC as determined by the BACTEC method, sensitive strain; assay type: cell-based; conditions: M. tuberculosis H37Rv (sensitive strain), read-out: MIC, column B, 3(S) compounds
[4] = system: Mycobacterium bovis BCG (recombinant strain); assay: microbe, parasite or virus in culture; assay type: cell-based; conditions: Mycobacterium tuberculosis variant bovis BCG, BCG, 144 h; 6 days 37° C.; read-out: MIC, column A, 3(S) compounds
Helicobacter felis = assay: In vivo activity against Helicobacter felis in mice (urease test of stomach biopsy); parameters: species or system in female CD-1 mice; conditions: 50 mg/kg three times daily oral gavage, CM-2, four days; vehicle and untreated 100
Method: Female CD-1 mice weighing 30 grams were infected by oral gavage with 10^8 -10^9 colony forming units of H. felis. This infection process was repeated two, and four days, thereafter. Colonization of the stomach was allowed to occur over a seven day period. Animals were segregated into groups of five, and were treated three times daily by oral gavage with 50 mg/kg of test drugs prepared in the CM-2 formulation vehicle (Example 52). Treatment continued for four days. One group of animals received an equal volume of formulation vehicle alone, to ensure that the vehicle had no effect on the Helicobacter infection. A separate untreated control group was also included.
All animals were then sacrificed, the stomachs were removed, opened, and the contents washed out. A five millimeter diameter biopsy was removed, and transferred to a urease test solution containing a pH-sensitive dye, which was then incubated at 37° C. incubator for 24 hours. A blue or purple coloration in this test solution signifies a positive reaction, indicating the continued presence of viable Helicobacter bacteria; a negative result is indicated by a yellow coloration. Viable Helicobacter bacteria produce a urease enzyme which converts urea, of which there is an abundant supply in the stomach (from saliva and gastric juices), into bicarbonate and ammonia, which are strong bases. This mechanism is considered to provide conditions more amenable to the survival of Helicobacter in the otherwise acidic conditions prevalent in the stomach.

[5] = system: Mycobacterium bovis (rBCG); assay type: in vivo; conditions: 10 days
Helicobacter pylori = assay: In vitro inhibition of Helicobacter pylori (broth microdilution MIC); conditions: Helicobacter pylori

Row | SMILES | activity against Mycobacterium tuberculosis [1] | MIC [2] | MIC [3] | MIC [4] | % Survival (Helicobacter felis) | Average RLUs, M. bovis (rBCG) in spleens [5] | MIC (Helicobacter pylori; 72 h, read-out: MIC against Helicobacter pylori, strain 17 (Table 5A)) | MIC (Helicobacter pylori; 72 h, read-out: MIC against Helicobacter pylori, strain 19 (Table 5A)) | MIC (Helicobacter pylori; 72 h, read-out: MIC against Helicobacter pylori, strain 20 (Table 5A)) | MIC (Helicobacter pylori; 72 h, read-out: MIC against Helicobacter pylori, strain 40 (Table 5A)) | MIC (Helicobacter pylori; 72 h, read-out: MIC against Helicobacter pylori, strain 43 (Table 5A)) | MIC (Helicobacter pylori; 72 h, read-out: MIC against Helicobacter pylori, strain 76 (Table 5A)) | MIC (Helicobacter pylori; ATCC43504, 72 h, read-out: MIC against Helicobacter pylori, strain ATCC 43504 (Table 5A))
1 | CCC1Cn2cc([N+](=O)[O-])nc2O1 (centres unmarked) [CGI 17341, 2-ethyl-5-nitro-2,3-dihydro[2,1-b]imidazo-oxazole] | exhibit activity against Mycobacterium tuberculosis | – | – | – | – | – | – | – | – | – | – | – | –
2 | O=[N+]([O-])c1cn2c(n1)OC[C@@H](OCc1ccc(OCc3ccccc3)cc1)C2 [PA-647] | – | 12.5 µg/mL (≈ 32.8 µM) | 0.03 µg/mL (≈ 0.0787 µM) | 0.03 µg/mL (≈ 0.0787 µM) | 100% | 19,916 RLUs | > 25 µg/mL | 0.2 µg/mL (≈ 0.524 µM) | 0.2 µg/mL (≈ 0.524 µM) | 0.4 µg/mL (≈ 1.05 µM) | 0.4 µg/mL (≈ 1.05 µM) | 3.12 µg/mL (≈ 8.18 µM) | > 25 µg/mL
3 | CC(C)(C)c1ccc(CO[C@@H]2COc3nc([N+](=O)[O-])cn3C2)cc1 [PA-653] | – | 3.12 µg/mL (≈ 9.42 µM) | 0.03 µg/mL (≈ 0.0905 µM) | 0.06 µg/mL (≈ 0.181 µM) | – | 229,080 RLUs | – | – | – | – | – | – | –
